# Like-named read-outs stand apart in the source and are kept apart here.
# What was measured:
# D. discoideum = D. discoideum growth inhibition; format: cell-based, Dictyostelium discoideum
# Human FPPS = biological target: T1, Human FPPS (Homo sapiens, UniProt P14324); assay: Human FPPS inhibition; format: biochemical
# T1 sequence (P14324 1-419): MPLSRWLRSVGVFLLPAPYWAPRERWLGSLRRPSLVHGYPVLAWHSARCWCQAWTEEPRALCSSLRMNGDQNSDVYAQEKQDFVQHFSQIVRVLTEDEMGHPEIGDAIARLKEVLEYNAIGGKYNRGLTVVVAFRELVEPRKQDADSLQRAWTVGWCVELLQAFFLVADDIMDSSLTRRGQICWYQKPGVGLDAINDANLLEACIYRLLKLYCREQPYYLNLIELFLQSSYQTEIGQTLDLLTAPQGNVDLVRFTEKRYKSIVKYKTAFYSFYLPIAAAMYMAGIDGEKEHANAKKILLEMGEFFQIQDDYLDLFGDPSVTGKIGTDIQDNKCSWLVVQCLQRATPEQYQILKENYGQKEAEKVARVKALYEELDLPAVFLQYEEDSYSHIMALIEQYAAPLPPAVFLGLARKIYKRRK
# Gammadelta T cell = Gammadelta T cell stimulation; format: cell-based, human
# T. brucei FPPS = T. brucei FPPS (Trypanosoma brucei, UniProt Q57WF1); assay: biochemical
# T. brucei FPPS, sequence (Q57WF1 entry or part of it): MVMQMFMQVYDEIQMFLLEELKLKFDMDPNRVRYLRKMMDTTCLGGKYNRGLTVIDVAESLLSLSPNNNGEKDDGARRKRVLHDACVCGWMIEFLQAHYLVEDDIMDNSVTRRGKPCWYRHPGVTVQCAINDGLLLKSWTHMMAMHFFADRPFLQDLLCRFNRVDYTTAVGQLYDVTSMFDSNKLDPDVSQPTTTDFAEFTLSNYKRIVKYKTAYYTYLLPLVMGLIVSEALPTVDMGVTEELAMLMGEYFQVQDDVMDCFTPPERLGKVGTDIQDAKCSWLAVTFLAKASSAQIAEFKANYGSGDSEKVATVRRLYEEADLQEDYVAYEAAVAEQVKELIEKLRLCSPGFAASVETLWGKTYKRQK
# MCF-7 cell = assay: Tumor cell growth inhibition, MCF-7; format: cell-based, human; conditions: breast cancer cell line
# Description: (§1) Bisphosphonate compounds were tested regarding tumor cell growth inhibition. […] See Table 1 and FIG. 3 showing dose-response data.
# NCI-H460 cell = assay: Tumor cell growth inhibition, NCI-H460; format: cell-based, human; conditions: lung cancer cell line
# Description: as §1
# SF-268 cell = assay: Tumor cell growth inhibition, SF-268; format: cell-based, human; conditions: central nervous system (glioblastoma) cell line
# Description: as §1
# [1] = biological target: undecaprenyl diphosphate synthase (UPPS) (Escherichia coli, UniProt P60472); assay: UPPS inhibition; format: biochemical
# undecaprenyl diphosphate synthase (UPPS), sequence (P60472 whole entry): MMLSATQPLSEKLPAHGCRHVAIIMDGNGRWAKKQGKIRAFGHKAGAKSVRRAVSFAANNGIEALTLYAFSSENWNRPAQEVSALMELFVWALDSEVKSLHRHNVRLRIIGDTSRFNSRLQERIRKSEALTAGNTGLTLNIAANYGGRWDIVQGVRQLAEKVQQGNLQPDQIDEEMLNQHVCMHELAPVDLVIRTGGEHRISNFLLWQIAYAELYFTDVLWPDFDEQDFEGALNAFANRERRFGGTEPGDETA
# Description: Certain compounds were also tested regarding the ability to inhibit undecaprenyl diphosphate synthase (UPPS). See results in Table 2. […] For example, an antibacterial treatment can include contacting a bacterial cell with a compound of the invention. In an embodiment, a bacterial cell can be, e.g., a Gram negative organism such as E. coli or a Gram positive organism such as Staphylococcus aureus.
# E. coli = assay: Anti-bacterial activity in E. coli; format: cell-based, Escherichia coli
# Source text: We considered aspects of mevalonate and non-mevalonate pathway gene regulation.
# [2] = Dictyostelium discoideum; read-out: D. discoideum IC50
molecule,measurement,setting,value
"1-hydroxy-3-(trimethylphosphoniumyl)propylidene-1,1-bisphosphonic acid [Compound 9]",IC50,D. discoideum; read-out: D. discoideum IC50,207 µM
same,Ki,Human FPPS,0.0226 µM
same,EC50,Gammadelta T cell,1800 µM
"NCCC(O)(P(=O)(O)O)P(=O)(O)O [1 (Pamidronate), Pamidronate, reference compound]",IC50,D. discoideum; [2],167 µM
"NCCCC(O)(P(=O)(O)O)P(=O)(O)O [2 (alendronate), alendronate, reference compound]",IC50,D. discoideum; [2],32 µM
same,EC50,"Gammadelta T cell; Homo sapiens, T-cell",52 µM
"O=P(O)(O)C(O)(Cc1cccnc1)P(=O)(O)O [3 (risedronate), risedronate, reference compound]",EC50,"Gammadelta T cell; Homo sapiens, T-cell",6.2 µM
"O=P(O)(O)C(O)(Cn1ccnc1)P(=O)(O)O [4 (zoledronate), zoledronate, reference compound]",IC50,T. brucei FPPS,0.32 µM
same,IC50,"D. discoideum; Dictyostelium discoideum, read-out: D. discoideum IC50",1.9 µM
"O=P(O)(O)C(O)(C[S+]1CCCCC1)P(=O)(O)O [Compound 6, 1-hydroxy-2-(pentamethylenesulfoniumyl)ethylidene-1,1-bisphosphonic acid]",IC50,T. brucei FPPS; read-out: T. brucei FPPS IC50,0.4 µM
same,IC50,D. discoideum; read-out: D. discoideum IC50,4.78 µM
same,EC50,Gammadelta T cell,22.1 µM
"C[P+](C)(C)CC(O)(P(=O)(O)O)P(=O)(O)O [Compound 7, 1-hydroxy-2-(trimethylphosphoniumyl)ethylidene-1,1-bisphosphonic acid]",IC50,T. brucei FPPS; read-out: T. brucei FPPS IC50,2 µM
same,IC50,D. discoideum; read-out: D. discoideum IC50,13.8 µM
same,Ki,Human FPPS,0.00818 µM
same,EC50,Gammadelta T cell,127 µM
"CC[S+](CCCOc1ccccc1)CCC(O)(P(=O)(O)O)P(=O)(O)O (centres unmarked) [Compound 16, 1-hydroxy-3-(S-ethyl-3-phenoxypropylsulfoniumyl)propylidene-1,1-bisphosphonic acid]",IC50,D. discoideum; read-out: D. discoideum IC50,4.23 µM
same,Ki,Human FPPS,0.0052 µM
same,EC50,Gammadelta T cell,199 µM
"C[S+](CCCc1ccccc1)CC(O)(P(=O)(O)O)P(=O)(O)O (centres unmarked) [Compound 23, 1-hydroxy-2-(S-methyl-3-phenylpropylsulfoniumyl)ethylidene-1,1-bisphosphonic acid]",IC50,T. brucei FPPS; read-out: T. brucei FPPS IC50,0.18 µM
same,IC50,D. discoideum; read-out: D. discoideum IC50,1.85 µM
same,Ki,Human FPPS,0.00568 µM
"O=P(O)(O)C(Cc1ccc(Br)c(Br)c1)P(=O)(O)O [Compound 491, 2-(3,4-Dibromophenyl)ethylidene-1,1-bisphosphonic acid]",IC50,MCF-7 cell,533 µM
same,IC50,NCI-H460 cell,446 µM
same,IC50,SF-268 cell,349 µM
"CC(C)(C)C(=O)OCOP(=O)(OCOC(=O)C(C)(C)C)C(Cc1ccc(Br)c(Br)c1)P(=O)(OCOC(=O)C(C)(C)C)OCOC(=O)C(C)(C)C [Compound 493, Tetrakis-pivaloyloxymethyl 2-(3,4-dibromophenyl)ethylidene-1,1-bisphosphonate]",IC50,MCF-7 cell,0.22 µM
same,IC50,NCI-H460 cell,0.62 µM
same,IC50,SF-268 cell,0.65 µM
"CC(C)(C)C(=O)OCOP(=O)(OCOC(=O)C(C)(C)C)C(Cc1ccc(Cl)c(Cl)c1)P(=O)(OCOC(=O)C(C)(C)C)OCOC(=O)C(C)(C)C [Compound 494, Tetrakis-pivaloyloxymethyl 2-(3,4-dichlorophenyl)ethylidene-1,1-bisphosphonate]",IC50,MCF-7 cell,0.34 µM
same,IC50,NCI-H460 cell,2.7 µM
same,IC50,SF-268 cell,1.43 µM
"CC(C)OC(=O)OCOP(=O)(OCOC(=O)OC(C)C)C(Cc1ccc(Cl)c(Cl)c1)P(=O)(OCOC(=O)OC(C)C)OCOC(=O)OC(C)C [Compound 495, Tetrakis-isopropoxycarboxymethyl 2-(3,4-dichlorophenyl)ethylidene-1,1-bisphosphonate]",IC50,MCF-7 cell,1.97 µM
same,IC50,NCI-H460 cell,4.85 µM
same,IC50,SF-268 cell,4.78 µM
"O=P(O)(O)C(O)(Cc1cccc(-c2cccc(-c3ccccc3)c2)c1)P(=O)(O)O [Compound 608, 1-Hydroxy-2-[3-(3-phenylphenyl)phenyl]ethylidene-1,1-bisphsophonic acid]",IC50,"MCF-7 cell; Homo sapiens, MCF7",152 µM
same,IC50,"NCI-H460 cell; Homo sapiens, NCI-H460",140 µM
same,IC50,"SF-268 cell; Homo sapiens, SF-268",130 µM
same,IC50,[1],0.61 µM
"O=P(O)(O)C(O)(CCc1cccc(-c2ccc(-c3ccccc3)cc2)c1)P(=O)(O)O [Compound 618, 1-Hydroxy-3-[3-(4-phenylphenyl)phenyl]propylidene-1,1-bisphosphonic acid]",IC50,MCF-7 cell,196 µM
same,IC50,NCI-H460 cell,132 µM
same,IC50,SF-268 cell,175 µM
same,IC50,[1],12.5 µM
"O=P(O)(O)C(O)(CCc1cccc(-c2ccccc2-c2ccccc2)c1)P(=O)(O)O [Compound 621, 1-Hydroxy-3-[3-(2-phenylphenyl)phenyl]propylidene-1,1-bisphosphonic acid]",IC50,"MCF-7 cell; Homo sapiens, MCF7",146 µM
same,IC50,"NCI-H460 cell; Homo sapiens, NCI-H460",133 µM
same,IC50,"SF-268 cell; Homo sapiens, SF-268",143 µM
same,IC50,[1],7.51 µM
"O=P(O)(O)C(O)(CCc1cccc(-c2cccc(-c3ccccc3)c2)c1)P(=O)(O)O [Compound 622, 1-Hydroxy-3-[3-(3-phenylphenyl)phenyl]propylidene-1,1-bisphsophonic acid]",IC50,"MCF-7 cell; Homo sapiens, MCF7",43.9 µM
same,IC50,"NCI-H460 cell; Homo sapiens, NCI-H460",46.9 µM
same,IC50,"SF-268 cell; Homo sapiens, SF-268",44.7 µM
same,IC50,[1],2.39 µM
"O=P(O)(O)C(O)(Cc1cccc(-c2ccccc2-c2ccccc2)c1)P(=O)(O)O [Compound 623, 1-Hydroxy-2-[3-(2-phenylphenyl)phenyl]ethylidene-1,1-bisphsophonic acid]",IC50,MCF-7 cell,92.7 µM
same,IC50,NCI-H460 cell,86.1 µM
same,IC50,SF-268 cell,58 µM
"O=P(O)(O)C(O)(Cc1ccc(-c2ccccc2-c2ccccc2)cc1)P(=O)(O)O [Compound 624, 1-Hydroxy-2-[4-(2-phenylphenyl)phenyl]ethylidene-1,1-bisphosphonic acid]",IC50,MCF-7 cell,1060 µM
same,IC50,NCI-H460 cell,329 µM
same,IC50,SF-268 cell,475 µM
"O=P(O)(O)C(O)(Cc1ccc(-c2cccc(-c3ccccc3)c2)cc1)P(=O)(O)O [Compound 625, 1-Hydroxy-2-[4-(3-phenylphenyl)phenyl]ethylidene-1,1-bisphosphonic acid]",IC50,"MCF-7 cell; Homo sapiens, MCF7",412 µM
same,IC50,"NCI-H460 cell; Homo sapiens, NCI-H460",413 µM
same,IC50,"SF-268 cell; Homo sapiens, SF-268",620 µM
same,IC50,[1],0.89 µM
"O=P(O)(O)C(O)(c1cccc(-c2cccc(-c3ccccc3)c2)c1)P(=O)(O)O [Compound 640, 1-Hydroxy-[3-(3-phenylphenyl)phenyl]methylene-1,1-bisphsophonic acid]",IC50,"MCF-7 cell; Homo sapiens, MCF7",310 µM
same,IC50,"NCI-H460 cell; Homo sapiens, NCI-H460",285 µM
same,IC50,"SF-268 cell; Homo sapiens, SF-268",303 µM
same,IC50,[1],1.86 µM
"CC(C)(C)C(=O)OCOP(=O)(OCOC(=O)C(C)(C)C)C(Cc1cccc(-c2cccc(-c3ccccc3)c2)c1)P(=O)(OCOC(=O)C(C)(C)C)OCOC(=O)C(C)(C)C [Compound 647, Tetrakis-pivaloyloxymethyl 2-[3-(3-phenylphenyl)phenyl]ethylidene-1,1-bisphosphonate]",IC50,MCF-7 cell,2.62 µM
same,IC50,NCI-H460 cell,1.64 µM
same,IC50,SF-268 cell,2.38 µM
O=CN(O)CCCP(=O)(O)O [fosmidomycin],anti-bacterial properties,E. coli,anti-bacterial properties
"Tetrakis-isopropoxycarboxymethyl 2-(3,4-difluorophenyl)ethylidene-1,1-bisphosphonate [Compound 496]",IC50,MCF-7 cell,15.2 µM
same,IC50,NCI-H460 cell,20.1 µM
same,IC50,SF-268 cell,28.3 µM
"Tetrakis-isopropoxycarboxymethyl 2-(3-cyanophenyl)ethylidene-1,1-bisphosphonate [Compound 498]",IC50,MCF-7 cell,58.6 µM
same,IC50,NCI-H460 cell,22.6 µM
same,IC50,SF-268 cell,7.77 µM

# Reference: US7687482B2, “Bisphosphonate compounds and methods” (The Board of Trustees of the University of Illinois, priority 2006, dated 2010)
